Data from patent US4014909A, “Esters of 21-thiol steroids” (priority 1974, dated 1977).
Entries after “also recorded” stand apart in the source; their conditions may differ. Read-outs that look alike come from different tables or passages of the source.

Legend:
[1] = test system: liver, kidneys, spleen, thymus, stomach; assay type: in vivo, rat (Sprague-Dawley); conditions: strong dose (436 mg/kg s.c. daily), male rat; study broken off on the 14th day
granuloma = experiment: Anti-proliferative (anti-granulomatous) activity, cotton pellet granuloma; assay type: in vivo, rat (Wistar, male); conditions: rat, cotton pellet impregnated with product, 6 days
Excerpt: The experimental local anti-inflammatory activity of the compounds presented was estimated in rats by their anti-proliferative (anti-granulomatous) action, and for certain of these, by their anti-arthritic activity and their antiexudative activity.
The anti-proliferative (anti-granulomatous) activity has been brought into evidence by means of a test, the principle of which is as follows.
The introduction of a foreign body into an organism produces a set of inflammatory reactions which results, in the chromic stage, in the formation of a defence granuloma around the foreign body. The proliferation of this granuloma is eliminated or attenuated by anti-inflammatory agents.
The technique employed is very similar to that described by Winter and Porter (J. Am. Pharm. Ass. 46/9. 515) 1957 with rats.
Homogeneous groups of 6 male adult rats of the Wistar Strain were used, distributed at random and having weights comprised between 180 and 200 grams.
The implants or pellets were prepared from rolls of dental cotton; the weight of the pellets was between 35 and 40 mg.
The products to be tested were dissolved in dimethylsulphoxide (DMSO) and the solutions obtained, deposited on the pellets at a volume of 0.2 ml per pellet. The DMSO was then evaporated under high vacuum at ambient temperature, the complete elimination of the solvent being checked by weighing the pellets. "Reference" pellets, soaked with the solvent alone, were treated in the same manner.
Immediately before their introduction, the pellets were soaked with an antibiotic solution (0.1 ml. of a solution of penicillin G and streptomycin containing 200,000 of penicillin G and 0.1 gram of streptomycin sulphate per cc.).
Each animal received two pellets in the sub-cutaneous dorsal tissue on each side of the spinal column, at the costo-lumbar angle, under light anaesthesia with ether. The day of the operation and for three days after, the animals received by sub-cutaneous injection, 0.1 ml. of the antibiotic solution in the caudal region.
Six days after the introduction, the animals were killed by inhalation of chloroform and the granulomae were extracted and weighed, (fresh weight), and then the initial weights of the cotton pellets were subtracted from the total weight.
Certain non-sulphured steroids causing a large increase in protein catabolism which can influence the formation of the granuloma independently of their anti-inflammatory action, the weights of the granulomae were expressed as a percentage of the body weight (technique proposed by G. Dipasquale and A. Meli: J. Pharm. Pharmacol. (1965), 17,367-382) and the anti-proliferative effect of the various compounds as a percentage inhibition with respect to the reference granulomae. The DE50 were calculated by transferring the results on to semi-logarithmic paper.

[2] = Glycemia after 4 weeks treatment; assay type: in vivo, rat (Sprague-Dawley)
Experimental: (§1) The action on the endocrine glands and the genital tractus, and a possible ulcerogenic effect were investigated, together with the effects on the glucidic and proteic metabolisms, on the hydro-mineral equilibrium after long-term administration.
(§2) There were utilized groups of 10 male rats and ten female rats of Sprague-Dawley S.P.F. strain which have been given the products under study by sub-cateneous methods daily for four weeks.
(§3) The products were administered in suspension in 5 % carboxy-methyl-cellulose under a volume of 0.5 ml. per 100 grams of body weight, in three different doses, the animals of the reference lot receiving the same volume of the vehicle alone.
(§4) In order to confirm certain previous results of the pharmacological short-term study, there has furthermore been determined, for each lot of animals:
at the end of the treatment:
(§5) During the course of the long-term study, the JO 1016 was administered daily to the male and female rats in doses of 100 mg/kg, 250 mg/kg, 500 mg/kg by the sub-cutaneous route.
The following Tables XIV and XV indicate the results of the proportions of glycemia with the reference animals and animals treated for 4 weeks following the procedure (h)

[3] = test system: liver, kidneys, spleen, thymus, stomach; assay type: in vivo, rat (Sprague-Dawley); conditions: 4 weeks
Excerpt: as §1
The principle of the tests employed is as follows.
The ulcer-producing action of certain corticoids, after repeated administration is well known, but the mechanism of this action still remains doubtful.
(§6) These studies have been carried out for some of the products according to the invention after sub-chronic administration.
as §2, §3
(§7) At the end of this study there were extracted:
(§8) The samples numbered (1), (2) and (3) were immediately weighed. All the samples were then fixed for histological examination in the Bouin-Holland fixator.
as §5

[4] = Body weight after long-term sub-cutaneous treatment; assay type: in vivo, rat (Sprague-Dawley); conditions: 4 weeks
Experimental: as §1, §2, §3, §4
The evolution of weight and the consumption of food during the treatment;
During the course of the long-term study, the JO 1016 was administered daily to the male and female rats in doses of 100 mg/kg, 250 mg/kg, 500 mg/kg by the sub-cutaneous route. […]

[5] = test system: adrenal glands, gonads, seminal vesicles, uterine tubes; experiment: Action on the endocrine glands and the genital tractus: organ weights and histology, long-term treatment; assay type: in vivo, rat (Sprague-Dawley); conditions: for Ovaries weight / Seminal vesicles weight / Testicles weight / Uterine tubes weight / Adrenal glands weight: 4 weeks, N.S.
Excerpt: as §1
The repeated administration of corticoids may result in an inhibition of the secretion of the ante-hypophysiary hormone which is shown by a lowering of the effectiveness of the target-glands (example: adrenal-glandes) and indirectly of certain organs which are under the dependence of a hormone secretion (example: genital tractus).
as §6, §2, §3, §7
(2) the gonads (testicles or ovaries);
(3) the seminal vesicles or the uterine tubes;
as §8, §5
After a long-term treatment by the JO 1016, following the procedure (h), the average weights of the following organs: adrenal glandes, gonads, seminal vesicles, uterine tubes are indicated in the following Table XXII

## CC(=O)OCC(=O)[C@@]1(O)CC[C@H]2[C@@H]3CCC4=CC(=O)CC[C@]4(C)[C@H]3[C@@H](O)C[C@@]21C [Hydrocortisone (acetate), Hydrocortisone acetate, reference compound]
[1]
  Mortality: high mortality observed with the strong dose
granuloma
  ED50 anti-proliferative activity: 1.05 mg/pellet

## CC(C)(C)C(=O)SCC(=O)[C@@]1(O)CC[C@H]2[C@@H]3CCC4=CC(=O)CC[C@]4(C)[C@H]3[C@@H](O)C[C@@]21C [JO 1016, Dihydroxy-11β, 17α thio-21 dioxo-3,20 pregnene-4-21 pivalate]
[2]; female, 500 mg/kg s.c.
  Glycemia, average ± standard error: 1,10 ± 0,04 g/liter
[2]; male, 100 mg/kg s.c.
  Glycemia, average ± standard error: 1.2 ± 0.04 g/L
[2]; male, 250 mg/kg s.c.
  Glycemia, average ± standard error: 1.2 ± 0.05 g/L
[2]; male, 500 mg/kg s.c.
  Glycemia, percentage of variation and probabilities: N.S.
[3]; 250 mg/kg s.c. daily
  Kidneys: presence of abscess (cases): 0/10
  Liver: presence of abscess (cases): 0/10
  Spleen: atrophied (cases): 0/10
  Stomach: ulcerated (cases): 0/10
  Stomach: ulcerated and infected (cases): 0/10
  Thymus: atrophied (cases): 0/10
[3]; 500 mg/kg s.c. daily
  Kidneys: presence of abscess (cases): 0/10
  Liver: presence of abscess (cases): 0/10
  Spleen: atrophied (cases): 0/10
  Stomach: ulcerated (cases): 0/10
  Stomach: ulcerated and infected (cases): 0/10
  Thymus: atrophied (cases): 0/10
granuloma
  ED50 anti-proliferative activity: 0.35 mg/pellet
[4]; female rats, 100 mg/kg s.c.
  Body weight, average ± standard error: 219 ± 3.06 g
  Body weight, percentages of variation and probabilities: N.S.
[4]; female rats, 250 mg/kg s.c.
  Body weight, average ± standard error: 216 ± 3.18 g
  Body weight, percentages of variation and probabilities: N.S.
[4]; female rats, 500 mg/kg s.c.
  Body weight, average ± standard error: 198 ± 4.85 g
[4]; male rats, 100 mg/kg s.c.
  Body weight, average ± standard error: 299 ± 45.2 g
  Body weight, percentages of variation and probabilities: N.S.
[4]; male rats, 250 mg/kg s.c.
  Body weight, average ± standard error: 289 ± 7.7 g
  Body weight, percentages of variation and probabilities: N.S.
[4]; male rats, 500 mg/kg s.c.
  Body weight, average ± standard error: 274 ± 2,5 g
[5]; 100 mg/kg s.c.
  Ovaries weight: 38.4 mg
  Seminal vesicles weight: 328.0 mg
  Testicles weight: 1.143 g
  Uterine tubes weight: 211.8 mg
[5]; 250 mg/kg s.c.
  Ovaries weight: 38.3 mg
  Seminal vesicles weight: 296.0 mg
  Testicles weight: 1.144 g
  Uterine tubes weight: 184.7 mg
[5]; 500 mg/kg s.c.
  Ovaries weight: 39.3 mg
  Seminal vesicles weight: 274.6 mg
  Testicles weight: 1.207 g
  Uterine tubes weight: 165.4 mg
[5]; female rats, 100 mg/kg s.c.
  Adrenal glands weight: 26.7 mg
[5]; female rats, 250 mg/kg s.c.
  Adrenal glands weight: 24,5 mg
[5]; female rats, 500 mg/kg s.c.
  Adrenal glands weight: 27,0 mg
[5]; long-term s.c. treatment
  Histological examination of organs: has not furthermore brought into evidence any alteration of their structure; also recorded: neither atrophy nor surrenal hypertrophy; also recorded: nor modification of the functional aspect of the male and female genital organs
[5]; male rats, 100 mg/kg s.c.
  Adrenal glands weight: 14.9 mg
[5]; male rats, 250 mg/kg s.c.
  Adrenal glands weight: 12,3 mg
[5]; male rats, 500 mg/kg s.c.
  Adrenal glands weight: 13.5 mg
